According to ChEMBL document CHEMBL1201862, “PubChem BioAssay data set” (2004):
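Exposure lasted 48 hours, with cells grown in 96-well plates and compounds tested at five concentrations. GI50 is the concentration that inhibits growth by half.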 Activity calls are given as the source filed them. Rule as the data show it: active = GI50 up to about 1.1 µM and inactive = higher.

How the values were obtained:
Assay in all cases: inhibition of tumour cell growth, NCI panel, 48 h
[1] = test system: SK-MEL-5
[2] = test system: U-251
[3] = test system: UACC-257
[4] = test system: T47D
[5] = test system: HOP-92
[6] = test system: PC-3
[7] = test system: MCF7
[8] = test system: SNB-19
[9] = test system: HCT-15
[10] = test system: UO-31
[11] = test system: CAKI-1
[12] = test system: MDA-N
[13] = test system: UACC-62
[14] = test system: MDA-MB-435
[15] = test system: 786-0
[16] = test system: SF-539
[17] = test system: SK-OV-3
[18] = test system: SW-620
[19] = test system: M14
[20] = test system: BT-549
[21] = test system: NCI-H460
[22] = test system: MOLT-4
[23] = test system: OVCAR-3
[24] = test system: OVCAR-4
[25] = test system: HCT-116
[26] = test system: KM12
[27] = test system: DU-145
[28] = test system: SF-295
[29] = test system: HCC 2998
[30] = test system: SK-MEL-2
[31] = test system: A549
[32] = test system: ACHN
[33] = test system: HL-60
[34] = test system: COLO 205
[35] = test system: MDA-MB-231
[36] = test system: NCI/ADR-RES
[37] = test system: SK-MEL-28
[38] = test system: LOX IMVI
[39] = test system: HT-29
[40] = test system: NCI-H226
[41] = test system: OVCAR-5
[42] = test system: IGROV-1
[43] = test system: OVCAR-8
[44] = test system: SN12C
[45] = test system: NCI-H23
[46] = test system: SNB-75
[47] = test system: TK-10
[48] = test system: EKVX
[49] = test system: HOP-62
[50] = test system: A498
[51] = test system: Malme-3M
[52] = test system: NCI-H522
[53] = test system: CCRF-CEM
[54] = test system: SR
[55] = test system: Hs-578T
[56] = test system: SF-268
[57] = test system: K562
[58] = test system: RXF 393
[59] = test system: RPMI-8226

Measured: GI50

O=C1Oc2ccccc2C(=O)/C1=C\NC(=S)c1ccncc1
inactive: [1] > 100 µM | [2] > 100 µM | [3] > 100 µM | [4] > 100 µM | [5] > 100 µM | [6] 94.4 µM | [7] > 100 µM | [8] 96.8 µM | [10] 45.7 µM | [11] 51.3 µM | [12] > 100 µM | [13] > 100 µM | [14] 98.4 µM | [15] > 100 µM | [16] > 100 µM | [17] > 100 µM | [18] 11 µM | [19] > 100 µM | [20] 31.6 µM | [21] 57.7 µM | [22] 95.1 µM | [23] 71.6 µM | [24] > 100 µM | [25] > 100 µM | [26] > 100 µM | [27] > 100 µM | [28] > 100 µM | [29] > 100 µM | [30] 42.3 µM | [31] > 100 µM | [32] 53.3 µM | [33] 3.35 µM | [34] > 100 µM | [35] > 100 µM | [36] > 100 µM | [37] 45.9 µM | [38] > 100 µM | [39] > 100 µM | [40] > 100 µM | [41] > 100 µM | [42] 67.1 µM | [43] 99.3 µM | [44] > 100 µM | [45] > 100 µM | [46] 99.3 µM | [47] > 100 µM | [48] > 100 µM | [49] 84.1 µM
69.3 µM: [9]

OC1C2CCC3C2CC(C(O)(c2ccccc2)c2ccccc2)C13 (stereo unspecified)
inactive: [1] 28.6 µM | [50] 37 µM | [2] 70.3 µM | [3] 24.6 µM | [4] 79.3 µM | [5] 45.2 µM | [6] 21.4 µM | [51] 28.4 µM | [7] 84.5 µM | [52] 34.8 µM | [8] > 100 µM | [10] 67.6 µM | [11] 40 µM | [53] 29.4 µM | [12] 33.3 µM | [13] 47.5 µM | [14] 32.6 µM | [54] 32.7 µM | [15] 37.5 µM | [16] 38.3 µM | [17] > 100 µM | [18] > 100 µM | [19] 65.8 µM | [21] 41.3 µM | [22] 35.8 µM | [23] 29.9 µM | [55] 45.9 µM | [24] > 100 µM | [25] 36.1 µM | [26] 61.7 µM | [27] > 100 µM | [28] 28 µM | [29] > 100 µM | [30] 18.4 µM | [31] 36.6 µM | [32] 33.7 µM | [56] > 100 µM | [34] 18.5 µM | [35] 29.6 µM | [36] 36.6 µM | [37] > 100 µM | [38] 37.8 µM | [39] 74.5 µM | [57] 18.2 µM | [40] 28.6 µM | [41] > 100 µM | [42] 23.9 µM | [43] 93.1 µM | [44] 21.9 µM | [45] 44.5 µM | [58] 34.7 µM | [46] 5.47 µM | [47] 73.5 µM | [48] 33.8 µM | [49] 63.2 µM
31.5 µM: [9]

COC(=O)C1C(O)CCC2CN3CCc4c([nH]c5ccccc45)C3CC21 (stereo unspecified)
inactive: [2] > 100 µM | [3] > 100 µM | [4] > 100 µM | [6] > 100 µM | [10] > 100 µM | [14] > 100 µM | [15] > 100 µM | [17] > 100 µM | [18] > 100 µM | [20] > 100 µM | [21] > 100 µM | [23] > 100 µM | [29] 59.4 µM | [31] > 100 µM | [56] > 100 µM | [37] 76 µM | [41] > 100 µM | [42] > 100 µM | [46] > 100 µM | [48] > 100 µM
> 100 µM: [9]

CN(C)N1C(=O)C(=O)N(c2cccc3ccccc23)C1=O
> 10 µM: [9]
inactive: [1] > 10 µM | [50] > 10 µM | [2] > 10 µM | [4] > 10 µM | [6] > 10 µM | [51] > 10 µM | [7] > 10 µM | [52] > 10 µM | [8] > 10 µM | [10] > 10 µM | [11] > 10 µM | [53] > 10 µM | [12] > 10 µM | [13] > 10 µM | [14] > 10 µM | [54] > 10 µM | [16] > 10 µM | [17] > 10 µM | [18] > 10 µM | [19] > 10 µM | [21] > 10 µM | [22] > 10 µM | [23] > 10 µM | [55] > 10 µM | [24] > 10 µM | [25] > 10 µM | [26] > 10 µM | [59] > 10 µM | [27] > 10 µM | [28] > 10 µM | [29] > 10 µM | [30] > 10 µM | [31] > 10 µM | [32] > 10 µM | [33] > 10 µM | [56] > 10 µM | [34] > 10 µM | [35] > 10 µM | [36] > 10 µM | [37] > 10 µM | [38] > 10 µM | [39] > 10 µM | [57] > 10 µM | [40] > 10 µM | [41] > 10 µM | [42] > 10 µM | [43] > 10 µM | [44] > 10 µM | [45] > 10 µM | [58] > 10 µM | [46] > 10 µM | [47] > 10 µM | [48] > 10 µM | [49] > 10 µM
